{"source": "paper PMC9530166", "about": "“Allosteric regulation of glycogen breakdown by the second messenger cyclic di-GMP” (Nature Communications, 2022)", "key": {"GlgX": {"biological_target": "GlgX (Streptomyces venezuelae, UniProt F2RAW5)", "sequence (F2RAW5 entry or part of it)": "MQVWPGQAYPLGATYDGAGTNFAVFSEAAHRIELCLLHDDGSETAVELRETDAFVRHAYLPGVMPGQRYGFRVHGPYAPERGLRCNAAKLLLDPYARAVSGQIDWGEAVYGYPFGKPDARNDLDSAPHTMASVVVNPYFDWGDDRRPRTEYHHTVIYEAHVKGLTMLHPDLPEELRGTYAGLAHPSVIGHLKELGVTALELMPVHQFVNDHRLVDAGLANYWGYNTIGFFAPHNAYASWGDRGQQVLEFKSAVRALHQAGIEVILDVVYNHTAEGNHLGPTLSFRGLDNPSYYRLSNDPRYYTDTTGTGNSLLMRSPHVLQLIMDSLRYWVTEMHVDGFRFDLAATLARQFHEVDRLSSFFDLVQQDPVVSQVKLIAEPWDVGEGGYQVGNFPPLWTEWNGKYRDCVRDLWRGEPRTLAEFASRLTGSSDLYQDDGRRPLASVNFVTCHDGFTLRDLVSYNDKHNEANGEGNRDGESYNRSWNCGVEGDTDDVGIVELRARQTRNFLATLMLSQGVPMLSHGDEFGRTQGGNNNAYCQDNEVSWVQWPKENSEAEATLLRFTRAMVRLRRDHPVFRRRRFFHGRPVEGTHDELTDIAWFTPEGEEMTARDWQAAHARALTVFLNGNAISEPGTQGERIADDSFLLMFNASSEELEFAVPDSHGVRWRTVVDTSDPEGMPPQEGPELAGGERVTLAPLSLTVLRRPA", "assay": "Fluorescence polarization (FP) binding, wild-type GlgX", "conditions": "FP, 1 nM fluoresceinated ligand, 25 °C", "description": "(§1) Fig. 5 Structure of the S. venezuelae GlgX-c-di-GMP complex. a Ribbon diagram of the S. venezuelae GlgX-c-di-GMP complex with one GlgX subunit colored cyan and the other salmon. Shown as sticks are the c-di-GMP molecules bound at each end of the antiparallel dimer. […] There was clear density for each c-di-GMP molecule. b Close up of the GlgX-c-di-GMP binding interaction. Key residues mediating contacts to the c-di-GMP are shown as sticks and labeled. Hydrogen bonds from GlgX residues that specify binding to the guanine are indicated by yellow dashed lines. c Fluorescence polarization (FP) binding isotherm showing interaction of GlgX, GlgXE47A-R49A and GlgXR438A-R579A for F-c-di-GMP in red, green and blue respectively. Also shown is the binding isotherm for GlgX binding to F-c-di-AMP in black. […] The y-axis and x-axis are millipolarization (mP) units and GlgX concentration (μM), respectively. Shown are representative binding curves for each. The experiments were performed in technical triplicates and the error between measurements reported. Error bars represent SD of the measurements. Source data are provided in the Source data file.\nThus, we used this F-tagged c-di-GMP in fluorescence polarization (FP) studies to quantify the interaction between GlgX and c-di-GMP. […] To ensure that the presence of the fluorescent tag was not impacting the GlgX interaction with c-di-GMP we used microscale thermophoresis (MST) to quantify c-di-GMP binding to GlgX. […] But to further probe the structural model we created GlgXE47A-R49A and GlgXR438A-R579A mutants and performed FP studies with these proteins.\nTo measure c-di-GMP binding to GlgX and GlgX mutants, 2′-O-(6-[Fluoresceinyl]aminohexylcarbamoyl)-cyclic diguanosine monophosphate (2′-Fluo-AHC-c-di-GMP) (BioLog), was used as a fluoresceinated reporter ligand. This molecule is conjugated via a nine atom spacer to one of the c-di-GMP 2′ hydroxyl groups. […] 2′-O-(6-[Fluoresceinyl]aminohexylcarbamoyl)-cyclic diadenosine monophosphate (2′-Fluo-AHC-c-di-AMP) (BioLog) was also used in binding studies to assess specificity of GlgX for c-di-GMP. […]"}, "GlgXR438A-R579A": {"tested_on": "GlgXR438A-R579A", "sequence (as listed by the source, stated change not applied)": "as the sequence (F2RAW5 entry or part of it) above, with R438A, R579A counted along it", "assay": "Fluorescence polarization binding, GlgXR438A-R579A", "set-up": "species or system Streptomyces venezuelae", "description": "as §1, with “Error bars represent SD of the measurements. Source data are provided in the Source data file.” left out\n(§2) Thus, we used this F-tagged c-di-GMP in fluorescence polarization (FP) studies to quantify the interaction between GlgX and c-di-GMP. […] To ensure that the presence of the fluorescent tag was not impacting the GlgX interaction with c-di-GMP we used microscale thermophoresis (MST) to quantify c-di-GMP binding to GlgX. […]"}, "GlgXE47A-R49A": {"tested_on": "GlgXE47A-R49A", "sequence (as listed by the source, stated change not applied)": "as the sequence (F2RAW5 entry or part of it) above, with E47A, R49A counted along it", "assay": "Fluorescence polarization binding, GlgXE47A-R49A", "set-up": "species or system Streptomyces venezuelae", "description": "as §1, with “Error bars represent SD of the measurements. Source data are provided in the Source data file.” left out\nas §2"}, "His6-GlgX": {"tested_on": "His6-GlgX", "assay": "DRaCALA with [32P]-c-di-GMP, wild-type GlgX", "assay_type": "binding, Streptomyces venezuelae", "conditions": "excess (100 µM) unlabeled nucleotide", "experimental": "(§3) Fig. 1 GlgX binds c-di-GMP. a Quantification of c-di-GMP in S. venezuelae cell extracts using LC-MS/MS. Cells were harvested during late vegetative growth (8–10 h), transition to sporulation (12–16 h), and sporulation (18–20 h). Data are presented as the mean of biological replicates ±SD (n = 3). […] Source data are provided in the Source data file. c [^32P]-c-di-GMP binds to GlgX in DRaCALA assay indicated by dark spots in the center of the nitrocellulose membrane. For competition, excess (100 µM) of unlabeled c-di-GMP, c-di-AMP, or GTP was added to the reaction containing [^32P]-c-di-GMP and GlgX.\nTo determine if the interaction between Vnz29170 (herein called GlgX) and c-di-GMP is direct, we purified an N-terminally His6-tagged GlgX protein and performed nano differential scanning fluorimetry (nanoDSF) thermal shift assays. […] In addition, we used differential radial capillary action of ligand assays (DRaCALA), which allows visualization of protein-bound radiolabeled ligand as a central spot after the application of the protein-ligand mix onto nitrocellulose. Using DRaCALA we confirmed that GlgX from S. venezuelae binds ^32P-labeled c-di-GMP.\nFor DRaCALA assays, purified His6-GlgX (15 μg) was mixed with 0.5 μl undiluted [^32P]-c-di-GMP (42 nM) (Hartmann Analytic GmbH, Braunschweig) in binding buffer (25 mM Tris pH 8; 150 mM NaCl; 2.5% (v/v) glycerol; 5 mM MgCl2) and the reaction was incubated at rt for 5 min. For competition assays, 100 μM nonlabeled nucleotides were added to the samples and incubated at rt for 5 min prior to the addition of [^32P]-c-di-GMP. Reactions (10 μl) were spotted on the same nitrocellulose membrane (Roth), air dried for 10 min and analyzed via phosphorimaging."}, "His6-GlgX (Vnz29170)": {"tested_on": "His6-GlgX (Vnz29170)", "assay": "nanoDSF label-free thermal shift assay, wild-type GlgX", "assay_type": "binding, Streptomyces venezuelae", "conditions": "10 µM GlgX, 1 mM c-di-AMP", "experimental": "as §3\nTo determine if the interaction between Vnz29170 (herein called GlgX) and c-di-GMP is direct, we purified an N-terminally His6-tagged GlgX protein and performed nano differential scanning fluorimetry (nanoDSF) thermal shift assays. […]\nFor label-free thermal shift assay experiments, 10 μM purified protein in 25 mM Tris pH 8, 150 mM NaCl, 2.5% (v/v) glycerol, and 5 mM MgCl2 was incubated without or with (1 mM) of nonlabeled c-di-GMP or c-di-AMP, respectively, at rt for 10 min. Reactions were subsequently analyzed in a Tycho NT.6 (NanoTemper Technologies) device with a 30 K/min thermal ramp and the internal fluorescence at 330 and 350 nm was recorded. […]"}, "[1]": {"biological_target": "S. venezuelae glycogen debranching enzyme GlgX (Vnz29170) (S. venezuelae)", "assay": "crystal structure; GlgX with 3 mM c-di-GMP, 3.34 Å; 40% ethylene glycol, 0.1 M sodium acetate pH 4.6; two GlgX dimers in the asymmetric unit"}}, "note": "Entries after “also recorded” stand apart in the source; their conditions may differ."}
{"compound": "2′-O-(6-[Fluoresceinyl]aminohexylcarbamoyl)-cyclic diadenosine monophosphate [F-c-di-AMP]", "values": [{"measurement": "binding to WT GlgX in FP", "setting": "GlgX", "value": "did not bind; also recorded: essentially no binding"}]}
{"compound": "2′-O-(6-[Fluoresceinyl]aminohexylcarbamoyl)-cyclic diguanosine monophosphate [F-c-di-GMP]", "values": [{"measurement": "binding to mutant in FP", "setting": "GlgXR438A-R579A", "value": "nonsaturable binding"}, {"measurement": "binding to mutant in FP", "setting": "GlgXE47A-R49A", "value": "nonsaturable binding"}, {"measurement": "Kd", "setting": "GlgX; WT GlgX titrated, pH 7.5, read-out: Kd", "value": "8.2 ± 1", "unit": "µM"}]}
{"compound": "Nc1nc2c(ncn2[C@@H]2O[C@H](COP(=O)(O)OP(=O)(O)OP(=O)(O)O)[C@@H](O)[C@H]2O)c(=O)[nH]1", "note": "[GTP]", "values": [{"measurement": "competition with 32P-c-di-GMP for binding to GlgX", "setting": "His6-GlgX", "value": "not c-di-AMP or GTP competed"}]}
{"compound": "Nc1ncnc2c1ncn2[C@@H]1O[C@@H]2COP(=O)(O)O[C@H]3[C@@H](O)[C@H](n4cnc5c(N)ncnc54)O[C@@H]3COP(=O)(O)O[C@H]2[C@H]1O", "note": "[c-di-AMP]", "values": [{"measurement": "competition with 32P-c-di-GMP for binding to GlgX", "setting": "His6-GlgX", "value": "not c-di-AMP or GTP competed"}, {"measurement": "effect of ligand on melting point of His6-GlgX", "setting": "His6-GlgX (Vnz29170)", "value": "no effect"}]}
{"compound": "S. venezuelae glycogen debranching enzyme GlgX (Vnz29170)", "values": [{"measurement": "stoichiometry N", "setting": "[1]", "value": 2}]}
